Laboratory results: patent publication US10150733B2, “Amidoheteroaryl aroyl hydrazide ethynes” (SUN PHARMA ADVANCED RESEARCH COMPANY LTD., priority 2015, dated 2018)

Legend:
[1] = tested on: c-Abl kinase (K562 cells); experiment: In-vitro cell proliferation assay (MTT), K562 cells; assay type: cell-based; conditions: for inhibition at 0.001 µM / inhibition at 0.01 µM / inhibition at 0.1 µM: Homo sapiens
Description: In-vitro Cell Proliferation Assay
K562/U937 cells (2×10^4 per well) were incubated with the test compounds/vehicle in a total volume of 200 μL of media at 37° C. with 5% CO2. On day 4, 20 μL MTT 5 mg/ml was added and the cells were incubated for 4-5 hours followed by addition of 100 μL of 10% SDS prepared in 0.06N HCl. The cells were incubated overnight at 37° C. with 5% CO2. On Day 5 the optical density was measured at 570 nm with 630 nm as reference wavelength. The optical density in the vehicle treated wells was compared with that of the test compound treated wells.

[2] = target: mutated Abl (T315I) (human) (Homo sapiens, UniProt P00519, T315I); experiment: Mutated Abl (T315I) (human) kinase assay, 33P-ATP filter binding; assay type: biochemical; conditions: for inhibition at 0.003 µM: 3 nM; for inhibition at 0.03 µM: 30 nM
Description: Mutated Abl (T315I) (Human)Kinase
In a final reaction volume of 25 μL, mutated Abl (T315I) (human) (5-10 mU) is incubated with 8 mM MOPS pH7.0, 0.2 mM EDTA, […] EAIYAAPFAKKK, 10 mM Mg(OAc)2 and [γ-33P-ATP] [specific activity approx. 500 cpm/pmol, concentration as required]. The reaction is initiated by the addition of the MgATP mix. After incubation for 40 minutes at room temperature, the reaction is stopped by the addition of 5 μL of a 3% phosphoric acid solution. 10 μL of the reaction is then spotted onto a P30 filtermat and washed three times for 5 minutes in 75 mM phosphoric acid and once in methanol prior to drying and scintillation counting.

SMILES | inhibition at 0.001 µM ([1]; 1 nM) [%] | inhibition at 0.01 µM ([1]; 10 nM) [%] | inhibition at 0.1 µM ([1]; 100 nM) [%] | inhibition at 0.003 µM [2] [%] | inhibition at 0.03 µM [2] [%] | c-Abl kinase (K562 cells); % Inhibition ([1]; 1 nM) [%] | c-Abl kinase (K562 cells); % Inhibition ([1]; 10 nM) [%] | c-Abl kinase (K562 cells); % Inhibition ([1]; 100 nM) [%]
Cc1ccc(C(=O)NNC(=O)c2c(C)cccc2Cl)cc1C#Cc1ccc(NC(=O)C2CC2)nc1 [I.1, cyclopropanecarboxylic acid (5-{5-[N′-(2-chloro-6-methylbenzoyl)hydrazinocarbonyl]-2-methyl-phenylethynyl}-pyridin-2-yl)amide] | 84.7 | 91.1 | 87 | 87 | 98 |  |  | 
Cc1ccc(C(=O)NNC(=O)c2c(C)cccc2Cl)cc1C#Cc1ccc(NC(=O)CN(C)C)nc1 [I.2, N-(5-{5-[N′-(2-chloro-6-methylbenzoyl)hydrazinocarbonyl]-2-methyl-phenylethynyl}-pyridin-2-yl)-2-dimethylaminoacetamide] | 71.6 | 82.5 | 82.9 | 50 | 87 |  |  | 
Cc1ccc(C(=O)NNC(=O)c2c(C)cccc2Cl)cc1C#Cc1ccc(NC(=O)CCN2CCN(C)CC2)nc1 [I.3, N-(5-{5-[N′-(2-Chloro-6-methylbenzoyl)hydrazinocarbonyl]-2-methyl-phenylethynyl}-pyridin-2-yl)-3-(4-methyl-piperazin-1-yl)propionamide] | 75 | 85.5 | 87.9 | 59 | 94 |  |  | 
Cc1ccc(C(=O)NNC(=O)c2c(C)cccc2Cl)cc1C#Cc1ccc(NC(=O)CN2CCC(N(C)C)CC2)nc1 [I.4, N-(5-{5-[N′-(2-Chloro-6-methyl-benzoyl)hydrazinocarbonyl]-2-methyl-phenylethynyl}-pyridin-2-yl)-2-(4-dimethylaminopiperidin-1-yl)acetamide] | 76.5 | 81.4 | 86.9 | 70 | 95 |  |  | 
Cc1ccc(C(=O)NNC(=O)c2c(C)cccc2Cl)cc1C#Cc1ccc(NC(=O)CN2CCC(N(C)C)C2)nc1 (centres unmarked) [I.5, N-(5-{5-[N′-(2-Chloro-6-methyl-benzoyl)hydrazinocarbonyl]-2-methyl-phenylethynyl}-pyridin-2-yl)-2-(3-dimethylaminopyrrolidin-1-yl)acetamide] | 71.4 | 81.7 | 82.1 | 66 | 96 |  |  | 
CC(=O)Nc1ccc(C#Cc2cc(C(=O)NNC(=O)c3c(C)cccc3Cl)ccc2C)cn1 [I.6, N-(5-{5-[N′-(2-Chloro-6-methyl-benzoyl)hydrazinocarbonyl]-2-methyl-phenylethynyl}-pyridin-2-yl)acetamide] | 88.4 | 91.6 | 91 | 68 | 89 |  |  | 
Cc1ccc(C(=O)NNC(=O)c2ccc(CN3CCN(C)CC3)cc2)cc1C#Cc1ccc(NC(=O)C2CC2)nc1 [I.7, Cyclopropanecarboxylic acid [5-(2-methyl-5-{N′-[4-(4-methylpiperazin-1-ylmethyl)benzoyl]-hydrazinocarbonyl}phenylethynyl)pyridin-2-yl]amide] | 24.6 | 78.6 | 85.9 |  |  |  |  | 
Cc1cn(-c2cc(C(=O)NNC(=O)c3ccc(C)c(C#Cc4ccc(NC(=O)C5CC5)nc4)c3)cc(C(F)(F)F)c2)cn1 [I.8, Cyclopropanecarboxylic acid [5-(2-methyl-5-{N′-[3-(4-methylimidazol-1-yl)-5-trifluoromethylbenzoyl]-hydrazinocarbonyl}phenylethynyl)pyridin-2-yl]amide] | 68.9 | 84 | 86.1 |  |  |  |  | 
Cc1ccc(C(=O)NNC(=O)c2c(C)cccc2Cl)cc1C#Cc1ccc(NC(=O)NC2CC2)nc1 [I.9, 1-(5-{5-[N′-(2-Chloro-6-methyl-benzoyl)-hydrazinocarbonyl]-2-methyl-phenylethynyl}-pyridin-2-yl)-3-cyclopropylurea] | 61 | 83.6 | 87.8 |  |  |  |  | 
Cc1ccc(C(=O)NNC(=O)c2c(C)cccc2Cl)cc1C#Cc1ccc(NC(=O)C(F)(F)F)nc1 [I.10] |  |  |  |  |  | 39.8 | 78.5 | 73.3
Cc1ccc(C(=O)NNC(=O)c2ccc(CN3CCN(C)CC3)c(C(F)(F)F)c2)cc1C#Cc1ccc(NC(=O)C2CC2)nc1 [I.11, Cyclopropanecarboxylic acid [5-(2-methyl-5-{N′-[4-(4-methylpiperazin-1-yl-methyl)-3-trifluoromethylbenzoyl]-hydrazinocarbonyl}phenylethynyl)pyridin-2-yl]amide] | 54 | 58.3 | 57.2 |  |  |  |  | 
CCCC(=O)Nc1ccc(C#Cc2cc(C(=O)NNC(=O)c3c(C)cccc3Cl)ccc2C)cn1 [I.12] |  |  |  |  |  | 33.6 | 80.6 | 
